Experimental data from patent publication US5281710A, “Dynemicin analogs: synthesis, methods of preparation and use” (The Scripps Research Institute, priority 1992, dated 1994).

Columns and labels:
[1] = test system: MOLT-4 (Leukemia) cell line; test: cells; format: cell-based
Method in brief: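 Compounds and chimeras were screened against a panel of ten to twenty-five cancer cell lines plus seven "normal" cell preparations. Cytotoxicity was measured by sulforhodamine B staining, and IC50 was taken as the compound concentration required to kill one-half of the treated cells.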

SK-Mel-28 melanoma cells = test: Sulforhodamine B cytotoxicity, SK-Mel-28; format: cell-based; conditions: Homo sapiens, SK-MEL-28, SK-Mel-28; read-out: IC50
Method: (§1) In addition to the screening already discussed, several of the before-described compounds and chimeras were screened against several or all of a panel of ten to twenty-five cancerous cell lines as target cells and seven "normal" cell preparations. This screening utilized a sulforhodamine B cytotoxidity assay as discussed below.
(§2) IC50 values; i.e., the concentration of Compound required to kill one-half of the treated cells, were then calculated.

M-21 melanoma cells = test: Sulforhodamine B cytotoxicity, M-21; format: cell-based; conditions: Homo sapiens, M21
Method: as §1, §2
UCLA M-21 Institute, and originally obtained from […]

[2] = test system: Ovcar-4 ovarian carcinoma cells; test: Sulforhodamine B cytotoxicity, Ovcar-4; format: cell-based; conditions: Homo sapiens
Method: as §1, §2

U-251 MG glioma cells = test: Sulforhodamine B cytotoxicity, U-251; format: cell-based; conditions: Homo sapiens
Method: as §1, §2

[3] = test system: HT-29 colon carcinoma cells; test: Sulforhodamine B cytotoxicity, HT-29; format: cell-based; conditions: Homo sapiens, HT-29, colon carcinoma H-29 (Table 4) / HT-29 (Table 5); read-out: IC50
Method: as §1, §2

[4] = test system: Mel-7 breast carcinoma cells; test: Sulforhodamine B cytotoxicity, Mel-7 (breast carcinoma); format: cell-based; conditions: Breast carcinoma cell
Method: as §1, §2

H-358 lung cells = test: Sulforhodamine B cytotoxicity, H-358; format: cell-based; conditions: Homo sapiens, NCI-H358
Method: as §1, §2

[5] = test system: P-388 mouse lymphoma cells; test: Sulforhodamine B cytotoxicity, P-388; format: cell-based; conditions: Mus musculus, P388; P-388; read-out: IC50
Method: as §1, §2

[6] = test system: multiple-drug resistant TCAF-DAX cell line; test: Cytotoxicity, TCAF-DAX; format: cell-based
Method: as §1, §2

Water solubility = format: physicochemical

O=C(OCCS(=O)(=O)c1ccccc1)N1c2ccc(OCCO)cc2C23OC24CCCC3C#C/C=C\C#CC14 (stereo not drawn) [Compound 153]
viability at 0.01 µM ([1]; Homo sapiens, 72 h, 10^-8 M, Molt-4 tumor cells): 20%
relative potency (qualitative) ([1]; Molt-4): highest potency amongst all of the agents assayed against the Molt-4 leukemia cell line
IC50 (SK-Mel-28 melanoma cells): 3.1 µM
IC50 (M-21 melanoma cells): 1.6 µM
IC50 [2]: 0.78 µM
IC50 (U-251 MG glioma cells): 0.39 µM
IC50 [3]: 1.6 µM
IC50 [4]: 0.78 µM
IC50 (H-358 lung cells): 0.2 µM
IC50 [5]: 0.0046 µM
IC50 [6]: 0.0017 µM
water solubility (Water solubility): increased solubility of Compound 153 in water compared to the other enediyne compounds
